Measured values: patent US8080552B2, “Pyrimidyl derivatives as protein kinase inhibitors” (Hoffmann-LA Roche Inc., priority 2006, dated 2011)

Legend:
[1] = system: VEGF-induced HUVEC cells; experiment: CellTiter-Glo assay in VEGF-induced HUVEC cells; type: cell-based; details: Homo sapiens; Table 2; VEGF-induced (20 ng/ml) HUVEC cells, 72 hours, cell viability (ATP luminescence); read-out: IC50 HCT 116
Procedure: CellTiter-Glo™ Assay in VEGF-Induced HUVEC Cells:
HUVEC-c (Human Umbilical Vein Endothelial Cells, from Promocell Cat-No. C-12200) cells were trypsinized, spinned down and plated in 384-well plates at 1500 cells per well in 60 μl endothelial basal medium (EBM-2 from Promocell, Cat-No. C-22211) with 0.5% Fetal Calf Serum (FCS, Sigma Cat-No. F4135 (FBS)). Cells were incubated overnight at 37° C., and the next day, test compounds (stock solution 140 μmol/l in medium with 4.2% dimethylsulfoxide (DMSO)) were added in 5 μl medium over a final concentration range of 10 μmol/l to 0.5 nmol/l and 0.3% DMSO. Compounds were tested in triplicates. After 2 hrs 5 μl VEGF (VEGF 165, R&D Systems, Cat-No. 293-VE-010, stock solution 280 ng/ml in medium) was added to a final concentration of 20 ng/ml. Cells were incubated for 72 hours at 37° C. in medium. Cell number was quantitated using CellTiter-Glo™ Luminescent Cell Viability Assay (from Promega) according to the instructions of the supplier. This assay measures the number of viable cells per well by measurement of luminescent signal based on amount of cellular ATP. IC50 are determined using a non-linear curve fit (XLfit software (ID Business Solution Ltd., Guilford, Surrey, UK)) (see also CellTiter-Glo™ assay in HCT 116 cells above).

[2] = system: HCT 116 cells; experiment: CellTiter-Glo assay in HCT 116 cells; type: cell-based; details: 120 h; HCT 116 human colon carcinoma cells, 5 days incubation, cell viability (ATP luminescence)
From the text: CellTiter-Glo™ Assay in HCT 116 Cells:
The CellTiter-Glo™ Luminescent Cell Viability Assay (Promega) is a homogeneous method of determining the number of viable cells in culture based on quantitation of the ATP present, which signals the presence of metabolically active cells.
HCT 116 cells (human colon carcinoma, ATCC-No. CCl-247) were cultivated in RPMI 1640 medium with GlutaMAX™ I (Invitrogen, Cat-No. 61870-010), 5% Fetal Calf Serum (FCS, Sigma Cat-No. F4135 (FBS)); 100 Units/ml penicillin/100 μg/ml streptomycin (=Pen/Strep from Invitrogen Cat. No. 15140). For the assay the cells were seeded in 384 well plates, 1000 cells per well, in the same medium. The next day the test compounds were added in various concentrations ranging from 30 μM to 0.0015 μM (10 concentrations, 1:3 diluted). After 5 days the CellTiter-Glo™ assay was done according to the instructions of the manufacturer (CellTiter-Glo™ Luminescent Cell Viability Assay, from Promega). In brief: the cell-plate was equilibrated to room temperature for approximately 30 minutes and than the CellTiter-Glo™ reagent was added. The contents were carefully mixed for 15 minutes to induce cell lysis. After 45 minutes the luminescent signal was measured in Victor 2, (scanning multiwell spectrophotometer, Wallac).
• Medium: RPMI 1640 with GlutaMAX™ I (Invitrogen, Cat-Nr. 61870), 5% FCS (Sigma Cat.-No. F4135), Pen/Strep (Invitrogen, Cat No. 15140). • HCT116 (ATCC-No. CCl-247): 1000 cells in 60 μl per well of 384 well plate (Greiner 781098, μClear-plate white) • After seeding incubate plates 24 h at 37° C., 5% CO2 2nd. Day: Induction (Treatment with Compounds, 10 Concentrations):
In order to achieve a final concentration of 30 μM as highest concentration 3.5 μl of 10 mM compound stock solution were added directly to 163 μl media. Then step e) of the dilution procedure described below, was followed.

## C[Si](C)(C)c1ccc(NC(=O)Nc2ccc(Oc3ccnc(NCCCO)n3)cc2)cc1 [Example 14, 1-{4-[2-(3-Hydroxy-propylamino)-pyrimidin-4-yloxy]-phenyl}-3-(4-trimethylsilanyl-phenyl)-urea]
[1]
  IC50: 0.005 to 0.75 µM
[2]
  IC50: 1.52 µM
